One assay concerns E. coli ATCC 25922 ΔTolC. In kind it is cell-based, Escherichia coli. The following applies: broth microdilution, 96-well, EUCAST, OD600, Iron -, at least triplicate. As for the experimental part: (§1) The MIC was determined by broth microdilution method in 96-well plates with 100 µL assay volume per well following EUCAST instructions ([116], [117]) for E. coli ATCC 35218, E. coli ATCC 25922 ΔTolC, E. coli MG1655, Pseudomonas aeruginosa ATCC 27853, P. aeruginosa PAO750, Klebsiella pneumoniae ATCC 13883, Moraxella catarrhalis ATCC 25238, Acinetobacter baumannii ATCC 19606, Bacillus subtilis DSM 10, Staphylococcus aureus ATCC 25923, and Micrococcus luteus DSM 20030. Listeria monocytogenes DSM 20600 (1 day of incubation at 37°C) and Mycobacterium smegmatis ATCC 607 (2 days of incubation at 37°C) were grown in BHI broth supplemented with 1% (vol/vol) Tween 80. Candida albicans FH2173 was grown in MHIIB over 2 days of incubation at 37°C (pre-culture 2 days at 28°C). Approximate inoculation cell density for all strains was 500,000 CFU/mL, except 1,000,000 CFU/mL were used for M. smegmatis and C. albicans. For all fungal screenings 100,000 spores/mL were used and incubated at 37°C for Aspergillus flavus ATCC 9170 (MHIIB) and 25°C for Z. tritici MUCL45407 (4 g/L yeast extract, 4 g/L malt extract, 4 g/L sucrose) and Fusarium oxysporum ATCC 7601 (potato dextrose broth, Sigma). Growth inhibition was detected by optical density (600 nm) or for M. luteus, L. monocytogenes, C. albicans, M. smegmatis, and all fungi by quantification of free ATP using BacTiter-Glo after 24 to 48 h (72 h for Z. tritici). All MIC assays were performed at least in triplicate. FE(III)-citrate was added at molar ratios of 1:1 to samples in DMSO to test compounds in their iron bound conformation.
Background: In broth dilution the organism is exposed to a series of concentrations in liquid medium.

Another assay has as its system E. coli ATCC 35218. It counts as cell-based, Escherichia coli. The following applies: E. coli ATCC 35218; broth microdilution, 96-well, EUCAST; OD600; chitinopeptins without iron (Iron -); at least triplicate. The procedure: as §1
The test system of a further assay is E. coli MG1655. It counts as cell-based, Escherichia coli. The following applies: broth microdilution, 96-well, EUCAST, OD600, Iron -, at least triplicate. As for the experimental part:
as §1

Assay [1] relates to Staphylococcus aureus ATCC 25923. It counts as cell-based. The following applies: S. aureus ATCC 25923; broth microdilution, 96-well, EUCAST; OD600; Iron -; at least triplicate. As for the experimental part: as §1
Assay [2] concerns Listeria monocytogenes DSM 20600. It counts as cell-based. The following applies: L. monocytogenes DSM 20600; BHI broth + 1% Tween 80, 1 day 37°C; BacTiter-Glo; Iron -; at least triplicate. The procedure: as §1
A further assay deals with Bacillus subtilis DSM 10. In kind it is cell-based. Conditions: B. subtilis DSM 10; broth microdilution, 96-well, EUCAST; OD600; Iron -; at least triplicate. The procedure:
as §1

Assay [3] deals with Micrococcus luteus DSM 20030. In kind it is cell-based. Conditions: M. luteus DSM 20030; broth microdilution, 96-well; free ATP (BacTiter-Glo); Iron -; at least triplicate. As for the experimental part:
as §1

Assay [4] concerns Klebsiella pneumoniae ATCC 13883. In kind it is cell-based. The following applies: K. pneumoniae ATCC 13883; broth microdilution, 96-well, EUCAST; OD600; Iron -; at least triplicate. As for the experimental part:
as §1

Assay [5] relates to Acinetobacter baumannii ATCC 19606. It counts as cell-based. Conditions: A. baumannii ATCC 19606; broth microdilution, 96-well, EUCAST; OD600; Iron -; at least triplicate. The procedure:
as §1

Assay [6] concerns Moraxella catarrhalis ATCC 25238. In kind it is cell-based. The following applies: M. catarrhalis ATCC 25238; broth microdilution, 96-well, EUCAST; OD600; Iron -; at least triplicate. As for the experimental part:
as §1

Assay [7] relates to Pseudomonas aeruginosa ATCC 27853. In kind it is cell-based. Conditions: P. aeruginosa ATCC 27853; broth microdilution, 96-well, EUCAST; OD600; Iron -; at least triplicate. The procedure: as §1
A further assay relates to P. aeruginosa PAO750. In kind it is cell-based, Pseudomonas aeruginosa. The following applies: broth microdilution, 96-well, EUCAST, OD600, Iron -, at least triplicate. As for the experimental part:
as §1

Assay [8] concerns Mycobacterium smegmatis ATCC 607. In words: microbe, parasite or virus in culture. It counts as cell-based. Conditions: M. smegmatis ATCC 607; BHI broth + 1% Tween 80, 2 days 37°C; BacTiter-Glo; Iron -; at least triplicate. The procedure: as §1

A value given as a limit tells only on which side of the number the result lay.

Turning to Gentamycin [reference compound], the MIC in the assay with E. coli ATCC 25922 ΔTolC is on record as 0.25 µg/mL; in the assay on E. coli ATCC 35218, 0.125 µg/mL; against E. coli MG1655 it was 0.5 µg/mL; in assay [1], 0.063 µg/mL; in [2] it was at most 0.031 µg/mL; in the assay with Bacillus subtilis DSM 10, at most 0.031 µg/mL. The MIC in assay [3] was at most 0.031 µg/mL; in [4], at most 0.031 µg/mL; in assay [5], 16 µg/mL; in assay [6] it was 0.125 µg/mL; in assay [7], 1 µg/mL; in the assay with P. aeruginosa PAO750, 0.125 µg/mL.
Turning to Rifamicin [reference compound], the MIC in the assay with E. coli ATCC 25922 ΔTolC is listed as 2 µg/mL; against E. coli ATCC 35218, 4 µg/mL; against E. coli MG1655, 16 µg/mL; in assay [1], at most 0.031 µg/mL; in assay [2], at most 0.031 µg/mL; against Bacillus subtilis DSM 10, at most 0.031 µg/mL. Besides, the MIC is listed as at most 0.031 µg/mL in assay [3]; 8 µg/mL in assay [4]; 2 µg/mL in assay [5]; at most 0.031 µg/mL in [6]; 32 µg/mL in [7]; 8 µg/mL in assay [8]. For the same substance, in the assay with P. aeruginosa PAO750, the MIC is given as 16 µg/mL.

Source of the values: paper PMC9248904, “Genomic and Chemical Decryption of the Bacteroidetes Phylum for Its Potential to Biosynthesize Natural Products” (Microbiology Spectrum, 2022).
